# Test results from ChEMBL document CHEMBL4346704, “Novel symmetric bis-benzimidazoles: Synthesis, DNA/RNA binding and antitrypanosomal activity” (Eur J Med Chem, 2019).
# The source made the active and inactive calls. The rule behind the calls is not given here.
# Columns and labels:
# [1] = tested on: Calf thymus DNA; test: Binding affinity to calf thymus DNA assessed as hypochromic effect by UV-vis spectrophotometric method relative to control; assay type: nucleic-acid assay; set-up: concentration or dose not given beside the values; settings: Bos taurus
# [2] = Binding affinity to polyA-polyU dsRNA (unknown origin) assessed as hypochromic effect by UV-vis spectrophotometric method relative to control; assay type: nucleic-acid assay; set-up: concentration or dose not given beside the values
# [3] = tested on: Calf thymus DNA; test: Binding affinity to calf thymus DNA by UV-vis spectrophotometric method; assay type: nucleic-acid assay; settings: Bos taurus
# [4] = tested on: Poly(dA-dU)oligonucleotide; test: Binding affinity to polyA-polyU dsRNA (unknown origin) assessed as binding constant by UV-vis spectrophotometric method; assay type: nucleic-acid assay
# [5] = tested on: Calf thymus DNA; test: Ratio of compound concentration to polynucleotide phosphate concentration for binding affinity to calf thymus DNA; assay type: nucleic-acid assay; settings: Bos taurus
# [6] = Ratio of compound concentration to polynucleotide phosphate concentration for binding affinity to polyA-polyU dsRNA (unknown origin); assay type: nucleic-acid assay
# [7] = tested on: Calf thymus DNA; test: Binding affinity to calf thymus DNA assessed as change in melting temperature at compound to calf thymus DNA polynucleotide ratio of 0.1 by spectrophotometric analysis; assay type: nucleic-acid assay; settings: Bos taurus
# [8] = tested on: Calf thymus DNA; test: Binding affinity to calf thymus DNA assessed as change in melting temperature at compound to calf thymus DNA polynucleotide ratio of 0.3 by spectrophotometric analysis; assay type: nucleic-acid assay; settings: Bos taurus
# [9] = tested on: Calf thymus DNA; test: Binding affinity to calf thymus DNA assessed as change in melting temperature at compound to calf thymus DNA polynucleotide ratio of 0.5 by spectrophotometric analysis; assay type: nucleic-acid assay; settings: Bos taurus
# [10] = Binding affinity to polyA-polyU dsRNA (unknown origin) assessed as change in melting temperature at 0.1 ratio of compound to RNA by spectrophotometric analysis; assay type: nucleic-acid assay
# [11] = tested on: Poly(dA-dU)oligonucleotide; test: Binding affinity to polyA-polyU dsRNA (unknown origin) assessed as change in melting temperature at 0.3 ratio of compound to RNA by spectrophotometric analysis; assay type: nucleic-acid assay
# [12] = tested on: Poly(dA-dU)oligonucleotide; test: Binding affinity to polyA-polyU dsRNA (unknown origin) assessed as change in melting temperature at 0.5 ratio of compound to RNA by spectrophotometric analysis; assay type: nucleic-acid assay
# [13] = tested on: Trypanosoma brucei; test: Antitrypanosomal activity against Trypanosoma brucei 221 incubated for 48 hrs by resazurin based fluorescence assay; assay type: functional, organism-based; settings: Trypanosoma brucei, 221, 48 h
# [14] = tested on: Calf thymus DNA; test: Binding affinity to calf thymus DNA assessed as conformational change by circular dichroism analysis; assay type: nucleic-acid assay; settings: Bos taurus
# [15] = tested on: L6; test: Cytotoxicity against rat L6 cells incubated for 6 days by resazurin based fluorescence assay; assay type: cell-based; settings: L6, 144 h
# [16] = tested on: Poly(dA-dU)oligonucleotide; test: Binding affinity to polyA-polyU dsRNA (unknown origin) assessed as conformational change by circular dichroism analysis; assay type: nucleic-acid assay
Activity [1] [%],Activity [2] [%],log Ks [3],log Ks [4],Ratio [5],Ratio [6],ΔTm [7] [°C],ΔTm [8] [°C],ΔTm [9] [°C],ΔTm [10] [°C],ΔTm [11] [°C],ΔTm [12] [°C],IC50 [13] [µM],Activity [14],IC90 [13] [µM],Activity [16],Structure (SMILES),IC50 [15] [µM]
45,10,6.55,6.54,0.19,0.13,2.6,1.2,3.2,0,0,0,> 15,inactive,,,c1ccc2[nH]c(-c3ccc(Cn4cc(CCCc5cn(Cc6ccc(-c7nc8ccccc8[nH]7)o6)nn5)nn4)o3)nc2c1,
27,34,7.04,< 4,0.05,0.5,2.1,4.1,2.5,0,0,0,3,inactive,7.2,,Clc1ccc2[nH]c(-c3ccc(Cn4cc(CCCc5cn(Cc6ccc(-c7nc8cc(Cl)ccc8[nH]7)o6)nn5)nn4)o3)nc2c1,> 300
35,22,6.18,5.5,0.1,0.3,2.8,3.2,2.6,0,0,0,> 15,inactive,,,c1ccc2[nH]c(-c3ccc(Cn4cc(COc5ccc(OCc6cn(Cc7ccc(-c8nc9ccccc9[nH]8)o7)nn6)cc5)nn4)o3)nc2c1,
46,31,6.56,4.94,0.15,0.5,0.8,1.3,2,0.8,1.3,2,4,inactive,8.9,,Fc1ccc2[nH]c(-c3ccc(Cn4cc(CCCc5cn(Cc6ccc(-c7nc8cc(F)ccc8[nH]7)o6)nn5)nn4)o3)nc2c1,221
8,< 5,,,,,,,,,0.9,,> 10,Active,,Active,N=C(N)c1ccc2[nH]c(-c3ccc(Cn4cc(COc5ccc(-c6ccc(OCc7cn(Cc8ccc(-c9nc%10cc(C(=N)N)ccc%10[nH]9)o8)nn7)cc6)cc5)nn4)o3)nc2c1,
36,41,6.22,5.76,0.29,0.31,0.6,0.7,1.1,0.6,0,0.6,> 15,inactive,,,c1ccc2[nH]c(-c3ccc(Cn4cc(COCc5cn(Cc6ccc(-c7nc8ccccc8[nH]7)o6)nn5)nn4)o3)nc2c1,
37,24,5.93,6.65,0.47,0.43,9.2,10.4,12.5,2.2,3.5,3.3,3.3,Active,4.7,,Cl.Cl.N=C(N)c1ccc2[nH]c(-c3ccc(Cn4cc(COCc5cn(Cc6ccc(-c7nc8cc(C(=N)N)ccc8[nH]7)o6)nn5)nn4)o3)nc2c1,88.6
8,< 5,,,,,,2.1,,,0,,> 10,Active,,Active,CC(C)NC(=N)c1ccc2[nH]c(-c3ccc(Cn4cc(COc5ccc(-c6ccc(OCc7cn(Cc8ccc(-c9nc%10cc(C(=N)NC(C)C)ccc%10[nH]9)o8)nn7)cc6)cc5)nn4)o3)nc2c1,
35,52,5.21,5.12,0.21,0.19,0.7,1.2,2.6,1,0.6,0.6,6.4,inactive,11.8,,Clc1ccc2[nH]c(-c3ccc(Cn4cc(COCc5cn(Cc6ccc(-c7nc8cc(Cl)ccc8[nH]7)o6)nn5)nn4)o3)nc2c1,
16,15,4,,0.3,,,0,,,0,,0.37,inactive,9.7,,Clc1ccc2[nH]c(-c3ccc(Cn4cc(COc5ccc(-c6ccc(OCc7cn(Cc8ccc(-c9nc%10cc(Cl)ccc%10[nH]9)o8)nn7)cc6)cc5)nn4)o3)nc2c1,30.4
35,51,5.93,6.43,0.47,0.35,0,0.5,0,1,1,1,7.9,inactive,> 25,,Fc1ccc2[nH]c(-c3ccc(Cn4cc(COCc5cn(Cc6ccc(-c7nc8cc(F)ccc8[nH]7)o6)nn5)nn4)o3)nc2c1,
25,11,5.92,,0.17,,0.5,1.2,3.4,0,0,0,3.4,inactive,6.7,,Fc1ccc2[nH]c(-c3ccc(Cn4cc(COc5ccc(OCc6cn(Cc7ccc(-c8nc9cc(F)ccc9[nH]8)o7)nn6)cc5)nn4)o3)nc2c1,219
9,8,,,,,,2.6,,,0,,> 10,Active,,Active,c1cc(-c2ccc(OCc3cn(Cc4ccc(-c5nc6cc(C7=NCCN7)ccc6[nH]5)o4)nn3)cc2)ccc1OCc1cn(Cc2ccc(-c3nc4cc(C5=NCCN5)ccc4[nH]3)o2)nn1,
13,46,6.61,5.7,0.05,0.3,13.6,13,13.8,1.5,0.6,9.3,3.6,Active,5.5,,Cl.Cl.N=C(N)c1ccc2[nH]c(-c3ccc(Cn4cc(CCCc5cn(Cc6ccc(-c7nc8cc(C(=N)N)ccc8[nH]7)o6)nn5)nn4)o3)nc2c1,198
27,7,6.33,,0.65,,0.7,1.5,2,0,0,0,1.4,inactive,2.5,,Clc1ccc2[nH]c(-c3ccc(Cn4cc(COc5ccc(OCc6cn(Cc7ccc(-c8nc9cc(Cl)ccc9[nH]8)o7)nn6)cc5)nn4)o3)nc2c1,> 270
24,32,6.33,5.69,0.09,0.58,13.8,14.5,14.8,0.9,0.5,0.8,5.1,Active,8.2,,CC(C)NC(=N)c1ccc2[nH]c(-c3ccc(Cn4cc(CCCc5cn(Cc6ccc(-c7nc8cc(C(=N)NC(C)C)ccc8[nH]7)o6)nn5)nn4)o3)nc2c1.Cl.Cl,104
14,12,4,,0.3,,,0,,,0,,> 10,inactive,,,c1ccc2[nH]c(-c3ccc(Cn4cc(COc5ccc(-c6ccc(OCc7cn(Cc8ccc(-c9nc%10ccccc%10[nH]9)o8)nn7)cc6)cc5)nn4)o3)nc2c1,
21,13,5.68,6.16,0.67,0.3,8.1,9.7,11.1,1.3,2,1.6,7.9,Active,10.8,,CC(C)NC(=N)c1ccc2[nH]c(-c3ccc(Cn4cc(COCc5cn(Cc6ccc(-c7nc8cc(C(=N)NC(C)C)ccc8[nH]7)o6)nn5)nn4)o3)nc2c1,
